Laboratory results as given in patent US4898878A, “Antioxidant thiohistidine compounds” (priority 1987, dated 1990).
pIC50: −log10 of the molar value.

What was measured:
ovoperoxidase = ovoperoxidase (Strongylocentrotus purpuratus, UniProt O44391); assay: CN--resistant NAD(P)H-O2 oxidoreductase (oxidase) activity of ovoperoxidase, thiol cofactor; format: biochemical; conditions: for cofactor for the CN--resistant oxidase reaction: in place of ovothiol
Description: NAD(P)H--02 oxidoreductase activity was measured by following the oxidation of reduced pyridine nucleotides spectrophotometrically at 360 nm in a Gilford 420 spectrophotometer. The off-peak wavelength of 360 nm for reduced pyridine nucleotides allowed the use of higher concentrations in a 1.0 cm pathlength cuvette. Assays were conducted in a 1 ml volume containing 50 mM NaCl, 20mM Hepes, 20 mM Tris, at pH 8.0 and 25° C., to which was added for routine assays 0.4 mM NADH, 0.5 mM MnCl2, 1 mM NaCN, 134 nM ovoperoxidase, and the appropriate amount of ovothiol preparation. One unit of activity is defined as the amount of ovothiol needed to stimulate consumption of 1.0 nanomoles NADH/min. […] Assays were initiated with NADH unless otherwise specified.

[1] = Inhibition of pyrogallol autooxidation
Excerpt: The inhibition of the air oxidation of pyrogallol has been used previously as an assay for superoxide dismutase (SOD) (Marklund, S., and G. Marklund, Eur. J. Biochem. 47:469, 1974; Roth, E. F. Jr., and H. S. Gilbert, Anal. Biochem. 137:50, 1984).

[2] = Non-enzymic direct reaction of thiol with H2O2; format: physicochemical; conditions: metal-free solutions containing EDTA; for second order rate constant for reaction with H2O2: non-enzymic
Description: The non-enzymic reaction of OSH and H2 02 was measured and compared with GSH reacting with H2 02.
These preliminary studies were done in metal-free solutions containing EDTA, so additional experiments can compare the effect of ions of Fe, Mn, and Cu, as well as certain liganded derivatives such as hematin and vitamin B12, on the reaction. […] Oxidation of ovothiol can be monitored by its absorbance change at 310 nm (Turner et al., 1986) and glutathione by coupling the reaction to glutathione reductase and NADPH oxidation.

[3] = system: xanthine/xanthine oxidase system; conditions: cited from earlier work
[4] = Trapping of tyrosyl radicals: photochemical dityrosine formation
Excerpt: The known photochemical crosslinking of tyrosine (Amado, R., et al., Methods Enzymol. 107:377, 1984; Malencik, D. A., and S. R. Anderson, Biochem. 26:695, 1987; Joschek, H.-I., and S. I. Miller, J. Am. Chem. Soc. 88:3273, 1986) may be used as an assay for tyrosyl radical scavenging ability. This reaction proceeds by photochemical excitation of tyrosine, followed by an ejection of an electron to yield a tyrosyl radical. The ejected electron is apparently scavenged by oxygen, as evidenced by the augmentation of the tyrosine crosslinking rate on addition of SOD (scavenging 02^.-, thus slowing the back reaction of tyrosyl radical and 02^.- to yield tyrosine and 02). The tyrosyl radicals couple with one another to yield dityrosine, which is detected by its characteristic fluorescence. […] This is strong evidence that ovothiol can act as an efficient tyrosyl radical scavenger. This assay is mechanistically relatively simple technique for assaying antioxidants.

[5] = system: xanthine/xanthine oxidase system; assay: Xanthine oxidase-dependent oxyradical production, thiol oxidation; format: biochemical
Excerpt: Xanthine oxidase with both acetaldehyde and xanthine as substrates (both xanthine and its product uric acid react with OH^.) are used to determine whether the aromatic thiols or glutathione are oxidized by this reaction, or whether they inhibit cytochrome C reduction (McCord, J. M., and I. Fridovich, J. Biol. Chem. 244:6049-6054, 1969; Crapo, J. D., et al, Methods in Enzymology 530:382-386, 1977). For example, the ovothiol analogue H3 is oxidized by the xanthine/xanthine oxidase system, and that this can be suppressed by up to 50% by addition of SOD. Since GSH is protected only 20% by SOD in this assay (Wefers, H., and H. Sies, Europ. J. Biochem. 137:2936, 1983; Ross, D., et al., Biochem. Biophys. Acta 841:278, 1983), this implies a higher reactivity of 4-mercaptohistidines toward 02^.-. Differences between the reactions with acetaldehyde and xanthine will implicate OH^. in the process.

cultured myoblasts = assay: Toxicity to cultured myoblasts (colony formation, 3H-TdR incorporation); format: cell-based; conditions: administered as the disulfide
[6] = Reduction of Fremy's salt nitroxide radical; conditions: pH 7.0
Excerpt: Fremy's salt (K^+- 03 SN(0^.)SO3^- K^+) is a stable, commercially available nitroxide radical. Reduction of this radical can be followed by UV or ESR. […] In this assay, a relatively large difference was seen between two aromatic thiols, H3 and thiophenol.

sea urchin eggs [7] = assay: Toxicity to sea urchin eggs (inhibition of first cellular division after fertilization); format: cell-based; conditions: administered as the disulfide
Excerpt: This aspect of the screening program introduces additional complications. For example, certain thiols are toxic to cells (Heinecke, J. W., et al., J. Biol. Chem. 262, 1987; Issels, R., et al., in Superoxide and Superoxide Dismutase in Chemistry, Biology, and Medicine, ed. G. Rotilio, pp. 419-421, Elsevier, N.Y., 1986) because they can autooxidize and produce reactive oxygen intermediates (Misra, H. R., J. Biol. Chem. 249:2151-2155,1974). Thiol toxicity may be due to redox cycling; for example, when cystine is given to cells it damages lipoproteins, apparently by being reduced to cysteine intracellularly then exiting to reoxidize and produce oxygen radicals and cellular damage. When we administered compound H3 (containing the reactive 4-mercaptoimidazole ring without the amino acid side chain) to sea urchin eggs, it was toxic at 2 mM but not at 200 μM (as assessed inhibition of the first cellular division after fertilization). […] We tried compound H3 because we thought it would be permeant, having no charged side chain; we administered it to these cells as the disulfide. We infer that the toxicity was caused by redox cycling, with H3 being taken up, reduced, and the thiol being reoxidized extracellularly to produce reactive oxygen intermediates. […]

[8] = Reduction of ovothiol disulfide (OSSO) by reduced glutathione; format: physicochemical
Description: The redox potential of ovothiol was determined, as were the kinetics for its interaction with glutathione and H2 02. The mid-point potential (E^o') was estimated indirectly by determining the equilibrium in reaction with other known thiol-disulfide equilibria, since direct determination of (E^o') for thiols is typically complicated by artifacts. […] Appropriate corrections were made for the mixed disulfides present at different concentrations of ovothiol and glutathione. E^o' (30^o) for ovothiol was 44 mV positive relative to glutathione, or -0.196 V. Thus, the ΔG^o' for the reduction of ovothiol disulfide (OSSO) by reduced glutathione (GSH) is […], so that at equilibrium reduced ovothiol (OSH) predominates in a mixture of equimolar oxidized ovothiol (OSSO) and reduced glutathione (GSH). From a thermodynamic point of view, ovothiol can be maintained almost entirely in the reduced state by GSH, and thus by NADPH via glutathione reductase, without the need for a specific ovothiol reductase. […] Because reduced glutathione reduces ovothiol, a functional ovothiol reductase reaction exists by coupling reactions and [6]. The second order rate constant for ovothiol reduction by glutathione is 88M^-1 S^-1. We calculate that egg glutathione reductase is sufficient to produce 4.1 pmol GSH/min; with an egg GSH content of 0.9 pmol, it would take only 13 seconds for the egg to regenerate its entire GSH content from GSSG, if NADPH were present (which it is after fertilization). […] In other words, reduction of ovothiol is rapid at the concentrations of glutathione and ovothiol of the egg, and an enzymatic "ovothiol reductase" is not required to catalyze reaction.

eggs = assay: Oxygen consumption by eggs; format: cell-based, sea urchin
Excerpt: First, both ovothiol and NAD(P)H are intracellular metabolites, whereas ovoperoxidase is extracellular during the respiratory burst. […] Second, H2 02 is not released stoichiometrically by the ovoperoxidase-oxidase, so this cannot account for the significant concentrations of H2 02 previously detected at fertilization. Third, aminotriazole inhibits both the NAD(P)H oxidase and peroxidase activities of ovoperoxidase, yet has no effect on oxygen consumption by eggs.

[9] = system: fertilized sea urchin eggs; format: in vitro ADME
Description: First, the conditions under which ovothiols A or C are transported into the cells of interest are determined using radioactive ovothiol derivatives. For example, by reacting ovothiol A with ^3 H-formaldehyde and reduction by NaBH4, ovothiol A was converted into ^3 H-ovothiol C. […] The km for OSH uptake appears to be higher than for histidines, although the Vmax may be similar. We measure the kinetics of ovothiol uptake into the cells to be studied, in order to identify optimal conditions for transport. We no only use ^3 H-ovothiol C but also synthesize ^3 H-ovothiol A by using ^14 C--HCHO in the abovedescribed chemical synthesis procedure.

sea urchin eggs [10] = assay: First cell division of sea urchin eggs after iodoacetamide treatment; format: cell-based; conditions: for cell division: 0.25 mM iodoacetamide
Excerpt: The following biological experiment further implicates ovothiol in protection of eggs from H2 02 produced during the respiratory burst. If ovothiol were important in protection, then its absence should lead to embryonic lethality. […] However, iodoacetamide might have reacted with critical proteins (or other components) required for cell division, so that experiment was not definitive in implicating ovothiol. More recently, we added exogeneous catalase to eggs derivatized with iodoacetamide. Catalase should act as a second mechanism for removing H2 02 and partially compensate for the iodoacetamide treatment. The first cell division was blocked for eggs treated with 1.0 mM iodoacetamide prior to the respiratory burst (7% cleavage vs. 90% of control eggs). With catalase present during the respiratory burst, 70% of IAA-treated eggs divided (and 90% of the controls). Pretreatment with 0.25 mM iodoacetamide decreased cleavage to 75%; with exogenous 0.1 mM H2 02 added, cell division occurred in only 2% of these eggs, and with catalase present in 90%. Control eggs (not treated with iodoacetamide) were unaffected by 0.1 mM H2 02.

[11] = Mid-point redox potential from equilibrium with glutathione thiol-disulfide; format: physicochemical; conditions: 30°
Description: The redox potential of ovothiol was determined, as were the kinetics for its interaction with glutathione and H2 02. The mid-point potential (E^o') was estimated indirectly by determining the equilibrium in reaction with other known thiol-disulfide equilibria, since direct determination of (E^o') for thiols is typically complicated by artifacts. […] Appropriate corrections were made for the mixed disulfides present at different concentrations of ovothiol and glutathione. E^o' (30^o) for ovothiol was 44 mV positive relative to glutathione, or -0.196 V. Thus, the ΔG^o' for the reduction of ovothiol disulfide (OSSO) by reduced glutathione (GSH) is -0.386 kcal, so that at equilibrium reduced ovothiol (OSH) predominates in a mixture of equimolar oxidized ovothiol (OSSO) and reduced glutathione (GSH). From a thermodynamic point of view, ovothiol can be maintained almost entirely in the reduced state by GSH, and thus by NADPH via glutathione reductase, without the need for a specific ovothiol reductase. […] Because reduced glutathione reduces ovothiol, a functional ovothiol reductase reaction exists by coupling reactions and [6]. The second order rate constant for ovothiol reduction by glutathione is 88M^-1 S^-1. […]

Sequence of ovoperoxidase (O44391 entry or part of it): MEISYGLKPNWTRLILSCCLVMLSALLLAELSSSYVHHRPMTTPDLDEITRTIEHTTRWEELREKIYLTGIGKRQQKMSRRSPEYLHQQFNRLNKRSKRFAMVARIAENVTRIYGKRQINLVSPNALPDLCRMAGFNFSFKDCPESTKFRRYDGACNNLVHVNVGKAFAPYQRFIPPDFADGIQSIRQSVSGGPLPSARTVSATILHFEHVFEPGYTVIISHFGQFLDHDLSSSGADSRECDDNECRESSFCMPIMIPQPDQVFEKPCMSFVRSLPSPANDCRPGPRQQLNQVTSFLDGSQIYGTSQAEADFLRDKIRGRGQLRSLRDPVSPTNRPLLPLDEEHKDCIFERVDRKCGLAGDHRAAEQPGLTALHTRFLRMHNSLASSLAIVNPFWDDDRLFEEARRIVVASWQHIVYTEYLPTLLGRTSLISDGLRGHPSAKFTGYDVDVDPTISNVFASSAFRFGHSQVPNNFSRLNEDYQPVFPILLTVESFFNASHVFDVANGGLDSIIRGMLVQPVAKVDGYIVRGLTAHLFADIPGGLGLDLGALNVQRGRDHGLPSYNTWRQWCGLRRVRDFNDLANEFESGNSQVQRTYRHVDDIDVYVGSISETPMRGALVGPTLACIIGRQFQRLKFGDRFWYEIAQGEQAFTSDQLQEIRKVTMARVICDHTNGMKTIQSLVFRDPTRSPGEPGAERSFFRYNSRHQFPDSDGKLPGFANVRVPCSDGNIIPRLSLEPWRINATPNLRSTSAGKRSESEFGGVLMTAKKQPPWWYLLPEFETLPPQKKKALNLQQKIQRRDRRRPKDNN

Compound: CC(C)(COP(=O)(O)OP(=O)(O)OC[C@H]1O[C@@H](n2cnc3c(N)ncnc32)[C@H](O)[C@@H]1OP(=O)(O)O)[C@@H](O)C(=O)NCCC(=O)NCCS [Coenzyme A]
- cofactor for the CN--resistant oxidase reaction (ovoperoxidase): could not be replaced by

Compound: N[C@@H](CCC(=O)N[C@@H](CS)C(=O)NCC(=O)O)C(=O)O [GSH, glutathione]
- concentration needed for effect, relative to H3 [1]: 50 fold
- effect on air oxidation of pyrogallol [1]: more modest inhibitory effect
- second order rate constant for reaction with H2O2 [2]: 1.5 M^-1 S^-1
- cofactor for the CN--resistant oxidase reaction (ovoperoxidase): could not be replaced by
- protection by SOD in this assay [3]: 20%
- inhibition of photochemical dityrosine formation [4]: at least an order of magnitude less effective

Compound: Cc1c(S)ncn1C [H3, 1,5-dimethyl-4-mercaptoimidazole]
- oxidation by the xanthine/xanthine oxidase system [5]: is oxidized
- suppression of oxidation by addition of SOD ([5]; xanthine/xanthine oxidase): up to 50%
- colony formation of cultured myoblasts (cultured myoblasts; 200 μM): inhibited colony formation
- pIC50 (cultured myoblasts; Myoblast, cultured myoblasts, read-out: half-maximal effect on 3H-TdR incorporation): 4.82
- effect on air oxidation of pyrogallol [1]: induces a time lag
- rate of reduction of Fremy's salt relative to glutathione [6]: ~40 fold
- rate of reduction of Fremy's salt relative to thiophenol [6]: roughly ten-fold faster
- rate of reduction of Fremy's salt, rank [6]: fastest radical scavenger
- toxicity to sea urchin eggs at 200 μM (sea urchin eggs [7]; 200 μM): not
- toxicity to sea urchin eggs at 2 mM (sea urchin eggs [7]; 2 mM): toxic
- inhibition of photochemical dityrosine formation [4]: strong inhibitor
- effect on dityrosine formation at 1 μM ([4]; 1 μM): slowing the reaction for several minutes

Compound: CN(C)[C@@H](Cc1c(SSc2ncn(C)c2C[C@@H](C(=O)O)N(C)C)ncn1C)C(=O)O [OSSO]
- ΔG°' for reduction of ovothiol disulfide (OSSO) by reduced glutathione (GSH) [8]: -0.386 kcal
- t1/2 for reduction of OSSO to OSH ([8]; normal cellular GSH levels): 1.6 s

Compound: Nc1nc[nH]n1 [aminotriazole]
- effect on oxygen consumption by eggs (eggs): no effect

Compound: N[C@@H](CS)C(=O)O [cysteine]
- cofactor for the CN--resistant oxidase reaction (ovoperoxidase): could not be replaced by

Compound: C[N+](C)(C)[C@@H](Cc1c[nH]c(=S)[nH]1)C(=O)[O-] [ergothioneine]
- cofactor for the CN--resistant oxidase reaction (ovoperoxidase): could not be replaced by

Compound: N[C@@H](Cc1c[nH]cn1)C(=O)O [histidine]
- uptake by fertilized sea urchin eggs [9]: 38 fmol/egg/hr

Compound: NC(=O)CI [iodoacetamide]
- cell division (sea urchin eggs [10]; 0.1 mM H2O2, catalase present): 90%
- cell division (sea urchin eggs [10]; exogenous 0.1 mM H2O2 added): 2%
- cleavage (first cell division) (sea urchin eggs [10]; 1.0 mM iodoacetamide prior to respiratory burst): 7%
- eggs divided (sea urchin eggs [10]; 1.0 mM iodoacetamide, catalase present during respiratory burst): 70%
- cleavage (sea urchin eggs [10]; pretreatment with 0.25 mM iodoacetamide): 75%

Compound: CN(C)[C@@H](Cc1c(S)ncn1C)C(=O)O [ovothiol C, 1-methyl-N^α N^α -dimethyl-4-thiolhistidine]
- rate with H2O2 relative to reduced glutathione [2]: ~2.3 fold
- second order rate constant for reaction with H2O2 [2]: 3.34 M^-1 S^-1
- second order rate constant for reaction with H2O2 ([2]; listed as OSH): 3.3 M^-1 S^-1
- ovothiol concentration giving maximal oxidase activity (ovoperoxidase): 1 mM
- E°' mid-point potential [11]: -0.196 V
- E°' relative to glutathione (positive) [11]: 44 mV
- second order rate constant for ovothiol reduction by glutathione [8]: 88 M^-1 S^-1
- km for uptake compared with histidines [9]: higher
- uptake by fertilized sea urchin eggs [9]: 6 fmol/egg/hr

Compound: Sc1ccccc1 [thiophenol]
- effect on air oxidation of pyrogallol [1]: similar, though not identical

Compound: catalase
- inhibition of the NAD(P)H oxidase activity of ovoperoxidase (ovoperoxidase): inhibited

Compound: superoxide dismutase
- inhibition of the NAD(P)H oxidase activity of ovoperoxidase (ovoperoxidase): inhibited
